Test results reported in the supplement of paper PMC9663587.

Legend:
[1] = compound: T1, CN(C)C/C=C/C(=O)Nc1ccc(C(=O)N2CCC[C@@H](Nc3ncc(Cl)c(-c4c[nH]c5ccccc45)n3)C2)cc1 [THZ531]
[2] = compound: CN(C)C/C=C/C(=O)Nc1ccc(O[C@@H]2CCC[C@@H](Nc3ncc(Cl)c(-c4c[nH]c5ccccc45)n3)C2)cc1 [BSJ-01-175]
[3] = compound: CN1CCN(C(=O)c2ccc3cc(CCNc4ncnc5ccc(C#N)cc45)ccc3c2)CC1 [senexin b]
[4] = compound: CNCc1ccc(-c2[nH]c3cc(F)cc4c3c2CCNC4=O)cc1 [Rucaparib]
[5] = compound: C[C@@H]1COCCN1c1cc(C2([S@](C)(=N)=O)CC2)nc(-c2cc[nH]c3nccc2-3)n1 [AZD6738]
[6] = compound: C=CC(=O)Nc1ccc(C(=O)Nc2[nH]nc3c2CN(C(=O)N[C@H](CN(C)C)c2ccccc2)C3(C)C)cc1 [YKL-5-124]; test: GR value, 72 h; higher = faster growth (1 = untreated, <0 = killing);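 also: breast cancer and non-malignant breast epithelial lines, nine half-log doses, viable cells counted by Hoechst and LIVE/DEAD dye imaging versus time-zero plates and DMSO controls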
[7] = compound: CC(=O)c1c(C)c2cnc(Nc3ccc(N4CCN(CCOCCOCCOCCNC(=O)COc5cccc6c5C(=O)N(C5CCC(=O)NC5=O)C6=O)CC4)cn3)nc2n(C2CCCC2)c1=O [BSJ-03-123]; test: as above
[8] = compound: CN(C)C(=O)c1cc2cnc(Nc3ccc(N4CCNCC4)cn3)nc2n1C1CCCC1 [LEE011/Ribociclib]; test: as above
[9] = compound: T1, THZ531; test: as above
[10] = compound: CN(C)C/C=C/C(=O)Nc1ccc(C(=O)Nc2cccc(Nc3ncc(Cl)c(-c4c[nH]c5ccccc45)n3)c2)cc1 [THZ1]; test: as above
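For GR50, 72 h in this document: breast cancer and non-malignant breast epithelial cell lines, Deep Dye Drop or Dye Drop imaging, nine half-log doses, GR normalized to time-zero plates and DMSO-only controls.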

What does the source list for PDX1206?
GR50, 72 h [1]: 0.0456 µM; GR50, 72 h [2]: 0.0192 µM; GR50, 72 h [3]: 1.18 µM; GR50, 72 h [4]: > 10 µM; GR50, 72 h [5]: 4.6 µM; GR value ([6]; 0.001 µM): 0.821 GR; GR value ([6]; 0.003162 µM): 0.683 GR; GR value ([6]; 0.01 µM): 0.588 GR; GR value ([6]; 0.03162 µM): 0.519 GR; GR value ([6]; 0.1 µM): 0.461 GR; GR value ([6]; 0.3162 µM): 0.444 GR; GR value ([6]; 1 µM): 0.323 GR; GR value ([6]; 3.162 µM): 0.205 GR; GR value ([6]; 10 µM): -0.502 GR; GR value ([7]; 0.001 µM): 1.02 GR; GR value ([7]; 0.003162 µM): 0.915 GR; GR value ([7]; 0.01 µM): 0.885 GR; GR value ([7]; 0.03162 µM): 0.967 GR; GR value ([7]; 0.1 µM): 0.904 GR; GR value ([7]; 0.3162 µM): 0.912 GR; GR value ([7]; 1 µM): 0.782 GR; GR value ([7]; 3.162 µM): 0.726 GR; GR value ([7]; 10 µM): -0.109 GR; GR value ([8]; 0.001 µM): 0.899 GR; GR value ([8]; 0.003162 µM): 0.915 GR; GR value ([8]; 0.01 µM): 0.885 GR; GR value ([8]; 0.03162 µM): 0.915 GR; GR value ([8]; 0.1 µM): 0.758 GR; GR value ([8]; 0.3162 µM): 0.817 GR; GR value ([8]; 1 µM): 0.998 GR; GR value ([8]; 3.162 µM): 0.753 GR; GR value ([8]; 10 µM): 0.685 GR; GR value ([9]; 0.0001 µM): 1.14 GR; GR value ([9]; 0.0003162 µM): 0.992 GR; GR value ([9]; 0.001 µM): 1.01 GR; GR value ([9]; 0.003162 µM): 1.05 GR; GR value ([9]; 0.01 µM): 1.02 GR; GR value ([9]; 0.03162 µM): 0.9 GR; GR value ([9]; 0.1 µM): -0.371 GR; GR value ([9]; 0.3162 µM): -0.273 GR; GR value ([9]; 1 µM): -0.29 GR; GR value ([10]; 0.0001 µM): 1.05 GR; GR value ([10]; 0.0003162 µM): 1.03 GR; GR value ([10]; 0.001 µM): 0.987 GR; GR value ([10]; 0.003162 µM): 0.977 GR; GR value ([10]; 0.01 µM): 0.933 GR; GR value ([10]; 0.03162 µM): 0.351 GR; GR value ([10]; 0.1 µM): -0.278 GR; GR value ([10]; 0.3162 µM): -0.408 GR; GR value ([10]; 1 µM): -0.536 GR
